Results: patent US10858360B2, “Tricyclic gyrase inhibitors” (priority 2011, dated 2020)
Converted amounts (≈) assume the structure as drawn.

Experiments:
E. coli ATCC 25922 = assay: MIC, E. coli ATCC 25922; format: cell-based; settings: Alamar Blue read after overnight incubation at 35° C.; for MIC: Escherichia coli, ATCC25922, E. coli; for MIC Ec: E. coli
S. aureus ATCC 13709 = assay: MIC, S. aureus ATCC 13709 (Alamar Blue broth microdilution); format: cell-based; settings: Alamar Blue read after overnight incubation at 35° C.; for MIC: Staphylococcus aureus, ATCC13709, S. aureus; for MIC Sa: S. aureus

SMILES	MIC (E. coli ATCC 25922)	MIC (S. aureus ATCC 13709)	MIC Ec (E. coli ATCC 25922)	MIC Sa (S. aureus ATCC 13709)
CNc1cccc2c1[nH]c1nc(Sc3cnc4ccc[n+]([O-])c4c3)nc(N3CC4CC3CN4)c12 (centres unmarked) [1.57]	> 32 µg/mL	> 32 µg/mL	–	–
CNc1cc(F)cc2c1[nH]c1nc(Oc3cnc(C(F)(F)F)nc3)nc(N3C[C@@H]4[C@@H](N)[C@@H]4C3)c12 [4.280]	≤ 0.5 µg/mL	≤ 0.5 µg/mL	–	–
CNc1cc(F)cc2c1[nH]c1nc(Oc3cnc(C)nc3)nc(N3CCNCC3)c12 [4.163]	–	–	≤0.5 µg/mL	≤0.5 µg/mL
CNc1cc(F)cc2c1[nH]c1nc(Oc3cncc(-c4nnnn4C)c3)nc(N3CC[C@@H](N)C3)c12 [4.169]	8 µg/mL (≈ 16.8 µM)	2 µg/mL (≈ 4.21 µM)	–	–
CNc1cc(F)cc2c1[nH]c1nc(Oc3cnc(CN)nc3)nc(N3CC4CC(N)C4C3)c12 (centres unmarked) [4.394]	–	–	≤0.5 µg/mL	≤0.5 µg/mL
CNc1cccc2c1[nH]c1nc(Oc3cnc(C)nc3)nc(N3CC4C(C3)C4NC(=O)CN)c12 (centres unmarked) [3.18]	> 16 µg/mL	4 µg/mL (≈ 8.7 µM)	–	–
CNc1cc(F)cc2c1[nH]c1nc(Oc3cncc(-c4nnnn4C)c3)nc(N3CC4CC(N)C4C3)c12 (mixture of isomers) [4.171]	–	–	4 µg/mL	≤0.5 µg/mL
CNc1cc(F)cc2c1[nH]c1nc(Oc3cnc(C)nc3)nc(N3CC4(CC4N)C3)c12 (centres unmarked) [4.096]	–	–	≤0.5 µg/mL	≤0.5 µg/mL
CNc1cc(F)cc2c1[nH]c1nc(Oc3cnc(C)nc3)nc(N3CC4CC(N)C4C3)c12 (centres unmarked) [4.110]	–	–	≤0.5 µg/mL	≤0.5 µg/mL
CNc1cc(F)cc2c1[nH]c1nc(Oc3cnc(CN)nc3)nc(N3CC4CC3CC4N)c12 (centres unmarked) [4.393]	–	–	1 µg/mL (≈ 2.22 µM)	≤0.5 µg/mL
CNc1cc(F)cc2c1[nH]c1nc(Oc3cnc(C)nc3)nc(N3CC(N)CC3C)c12 (centres unmarked) [4.115]	–	–	8 µg/mL (≈ 18.9 µM)	1 µg/mL (≈ 2.37 µM)
CNc1ncc(Oc2nc(N3CC4C(N)C4C3)c3c(n2)[nH]c2c(NC)cc(F)cc23)cn1 (centres unmarked) [4.218]	≤ 0.5 µg/mL	≤ 0.5 µg/mL	–	–
CNc1cc(F)cc2c1[nH]c1nc(Oc3cnc(SC)nc3)nc(N3CCC4(C[C@H]4N)C3)c12 (some centres unmarked) [4.203]	–	–	≤0.5 µg/mL	≤0.5 µg/mL
CNc1cc(F)cc2c1[nH]c1nc(Oc3cnc(C)nc3)nc(N3C[C@H]4CCC(N)[C@@]4(C)C3)c12 (some centres unmarked) [4.099]	–	–	4 µg/mL (≈ 8.65 µM)	≤0.5 µg/mL
CNc1cc(F)cc2c1[nH]c1nc(Oc3cnc4ccc[n+]([O-])c4c3)nc(N3CC4(CCC4N)C3)c12 (centres unmarked) [4.342]	–	–	4 µg/mL (≈ 8.22 µM)	≤0.5 µg/mL
CNc1cc(F)cc2c1[nH]c1nc(Oc3cnc(CO)nc3)nc(N3CC(N)C4(CC4)C3)c12 (centres unmarked) [4.387]	–	–	≤0.5 µg/mL	≤0.5 µg/mL

SMILES	MIC (E. coli ATCC 25922)	MIC (S. aureus ATCC 13709)	MIC Ec (E. coli ATCC 25922)	MIC Sa (S. aureus ATCC 13709)
CNc1nccc2c1[nH]c1nc(Sc3cnc4nccnc4c3)nc(N3CC[C@@H](N)C3)c12 [7.01]	> 64 µg/mL	8 µg/mL (≈ 18 µM)	–	–
CNc1cc(F)cc2c1[nH]c1nc(Oc3cncnc3)nc(N3C[C@@H]4[C@H](C3)[C@@]4(N)C(N)=O)c12 [4.009]	> 64 µg/mL	≤ 0.5 µg/mL	–	–
CNc1cc(F)c(F)c2c1[nH]c1nc(Oc3cnc(C)nc3)nc(N3CC4CC(N)C4C3)c12 (centres unmarked) [5.03]	–	–	≤0.5 µg/mL	≤0.5 µg/mL
CCc1ncc(Oc2nc(N3CCC4(CC4N)C3)c3c(n2)[nH]c2c(NC)cc(F)cc23)cn1 (centres unmarked) [4.263]	≤ 0.5 µg/mL	≤ 0.5 µg/mL	–	–
CNc1cc(F)cc2c1[nH]c1nc(Oc3cnc(COC)nc3)nc(N3CC4CC(N)C4C3)c12 (centres unmarked) [4.344]	2 µg/mL (≈ 4.31 µM)	≤ 0.5 µg/mL	–	–
CNc1cccc2c1[nH]c1nc(Sc3cnc4ccc[n+]([O-])c4c3)nc(N3CC(N)C4(CC4)C3)c12 (centres unmarked) [1.40]	1 µg/mL (≈ 2.06 µM)	≤ 0.5 µg/mL	–	–
CNc1cccc2c1[nH]c1nc(Oc3cnc(C)nc3)nc(N3CC[C@@H](NCCC#N)C3)c12 [3.10]	> 64 µg/mL	32 µg/mL (≈ 72.2 µM)	–	–
CNc1cc(F)cc2c1[nH]c1nc(Oc3cnc(C)nc3)nc(N3CC4CCCC(N)C4C3)c12 (centres unmarked) [4.086]	–	–	2 µg/mL (≈ 4.32 µM)	≤0.5 µg/mL
CNc1ccc(C)c2c1[nH]c1nc(Sc3cnc4ccc[n+]([O-])c4c3)nc(N3CC(N)C4(CC4)C3)c12 (centres unmarked) [1.72]	1 µg/mL (≈ 2.01 µM)	≤ 0.5 µg/mL	–	–
CNc1cc(F)cc2c1[nH]c1nc(Oc3cnc(C)nc3)nc(N3CC4(CCC4N)C3)c12 (centres unmarked) [4.100]	–	–	≤0.5 µg/mL	≤0.5 µg/mL
CCOC(=O)C1CN(c2nc(Oc3cnc(C)nc3)nc3[nH]c4c(NC)cc(F)cc4c23)CC1N (centres unmarked) [4.140]	–	–	2 µg/mL (≈ 4.16 µM)	≤0.5 µg/mL
CNc1ncnc2c1[nH]c1nc(-c3cncnc3)nc(N3CC4C(N)C4C3)c12 (centres unmarked) [7.11]	> 64 µg/mL	> 64 µg/mL	–	–
CNc1cc(F)cc2c1[nH]c1nc(Oc3ccc4c(c3)C(=O)NCC4)nc(N3CC4C(N)C4C3)c12 (centres unmarked) [4.301]	–	–	1 µg/mL (≈ 2.11 µM)	≤0.5 µg/mL
CNc1cc(F)cc2c1[nH]c1nc(Oc3cnc(CC(=O)N4CCOCC4)nc3)nc(N3C[C@H](N)C4(CC4)C3)c12 [4.369]	1 µg/mL (≈ 1.83 µM)	≤ 0.5 µg/mL	–	–
CNc1cccc2c1[nH]c1nc(Sc3cnc4ccc[n+]([O-])c4c3)nc(N3C[C@@H]4[C@H](C3)[C@@]4(N)C(N)=O)c12 [1.19]	> 64 µg/mL	> 64 µg/mL	–	–
